The text below walks through data of patent US6730703B2, “Dual inhibitors of cholesteryl ester and wax ester synthesis for sebaceous gland disorders” (Warner-Lambert Company, priority 2000, dated 2004).

Series [1] relates to ACAT (acyl-Coenzyme A: cholesteryl acyltransferase).
Experimental: (§1) C. [4-^14C]Cholesteryl or [(1-^14C]Hexadecanol. Evaporate the toluene from the vial. Re-suspend radiolabel in 0.1 mL 2-propanol.
D. Oleoyl Coenzyme A (1 mM in sucrose buffer). […] Note: Store at −10° C. Dilute 5-fold to 200 μM with sucrose buffer just prior to assay.
E. [^14C]Cholesteryl—Labeled Microsomes or [^14C]Hexadecanol—Labeled Microsomes. Dilute a vial of stock microsomes to 4 mg protein per milliliter with sucrose buffer. […] Flush syringe once with microsome solution. Determine dpm in small aliquot of solution by liquid scintillation counting (LSC). Need approximately 4×10^6 dpm/mL in the microsome solution.
G. Test Compound Solutions. Test compounds are weighed to make either 1 mM or 4 mM stock solutions in dimethylsulfoxide (DMSO). These solutions are used to prepare DMSO solutions containing 40 times the concentration of compound to be tested. […]
(§2) h) Transfer 40 μL of the acidified solution to the pre-absorbent area of Whatman LK6D silica gel TLC plates, which are then dried on a hot plate for 5 minutes and developed in trimethylpentane/diethyl ether/acetic acid (75:25:2). The bands containing radiolabel are detected and quantitated by phosphorimaging with a Molecular Dynamics phosphorimager.
(§3) TLC will resolve free alcohol from its ester. The relative amount of radioactivity in each of those bands is determined by phosphorimaging. […]
Series [2] has as its system AFAT (acyl-Coenzyme A: fatty alcohol acyltransferase).
Experimental: (§4) a) The rats or mice are anesthetized with ether, and the PGs are removed and placed in a beaker containing wash buffer (ice cold).
(§5) b) As soon as possible, the PGs are homogenized in a Potter-Elvehjem homogenizer with 15 mL of homogenizing buffer. The homogenizer is kept in a small ice bath. Work the plunger until it reaches the bottom of the tube 10 times.
(§6) k) Add 1 mL of 0.2 M KPO4 buffer pH 7.4 to half of the bottles in an ice bath. Scrape the whole pellet loose with a teflon rod and transfer to a 15 mL homogenizer. Wash bottle with 1 mL of buffer and transfer to one of the bottles that has a pellet but no buffer. Homogenize gently by hand. Aliquot into Cryovials (Nalgene™) and store in liquid nitrogen. The microsomes remain active for at least 2 years.
(§7) m) Determine the protein concentration of the homogenate by the Lowry method. […] Desired protein concentration is 20 mg/mL rat or mouse PG microsomes.
as §1
(§8) D. Oleoyl Coenzyme A (1 mM in sucrose buffer). Dissolve 10.3 mg oleoyl coenzyme A (Sigma 0-7002) in 10 mL sucrose buffer. Note: Store at −10° C. Dilute 5-fold to 200 μM with sucrose buffer just prior to assay.
(§9) E. [^14C]Cholesteryl—Labeled Microsomes or [^14C]Hexadecanol—Labeled Microsomes. Dilute a vial of stock microsomes to 4 mg protein per milliliter with sucrose buffer. For every 1 mL of diluted microsome solution, use glass syringe (Hamilton, [sequence], 1702) and transfer 2.5 μL of radiolabel to diluted microsomes by submerging syringe needle in the microsome solution and swirling while ejecting syringe contents. Flush syringe once with microsome solution. Determine dpm in small aliquot of solution by liquid scintillation counting (LSC). Need approximately 4×10^6 dpm/mL in the microsome solution.
(§10) G. Test Compound Solutions. Test compounds are weighed to make either 1 mM or 4 mM stock solutions in dimethylsulfoxide (DMSO). These solutions are used to prepare DMSO solutions containing 40 times the concentration of compound to be tested. These solutions may be prepared 24 hours prior to the assay and stored at room temperature.
(§11) a) Duplicate samples are prepared by adding 5 μL of test compound solution to each of two assay tubes. Controls and blanks receive 5 μL of DMSO. […]
as §2, §3
For series [3], the target named is AFAT (acyl-Coenzyme A: fatty alcohol acyltransferase). The series can be described thus: Inhibition of wax ester (WE) synthesis in mouse preputial gland microsomes. The following applies: for pIC50: read-out: Inhibition of Wax Ester (WE) Synthesis IC50, mouse preputial microsome preparation, [14C]hexadecanol label, oleoyl coenzyme A.
Experimental: as §4, §5, §6, §7, §1, §8, §9, §10, §11, §2, §3

pIC50: −log10 of the molar value. Where two headings read alike, the source gives them in different places.

The term pIC50 denotes −log10 of the IC50, conventionally taken in molar units. Regarding `CC(C)c1cc(C(C)C)c(CC(=O)NS(=O)(=O)Oc2c(C(C)C)cccc2C(C)C)c(C(C)C)c1` [Compound 1, [(2,4,6-triisopropyl-phenyl)-acetyl]-sulfamic acid 2,6-diisopropyl-phenyl ester], the “Inhibition of liver ACAT (in words)” value in series [1] (inhibition curves of FIG. 1, printed as rat liver ACAT) is listed as “potent inhibitors of rat liver ACAT”. For the same compound, the pIC50 in series [1] (read-out: Inhibition of Cholesteryl Ester (CE) Synthesis IC50, mouse liver microsome preparation, [14C]cholesteryl label, oleoyl coenzyme A) is 7.05; in series [3], 4.86. Also, in series [2], the “Inhibition of WE synthesis in mouse preputial gland microsomes (in words)” value is “unexpectedly inhibits WE synthesis”.

Regarding `CCCCCCCCCCC(C)(C)C(=O)Nc1c(OC)cc(OC)cc1OC` [Compound 2, 2,2-dimethyl-N-(2,4,6-trimethoxyphenyl)-dodecanamide], the “Inhibition of WE synthesis in mouse preputial gland microsomes (in words)” value in series [3] (inhibition curves of FIG. 1, 0.01 μM to 100 μM) is “no inhibition of WE synthesis”. The negative logarithm of the IC50 (pIC50) in series [3] was under 4.00.
